In ChEMBL document CHEMBL1201862, “PubChem BioAssay data set” (2004):
Calls of active or inactive are those of the source.

What was measured:
Cytochrome P450 2C19 = Cytochrome P450 2C19 (Homo sapiens, UniProt P33261); experiment: Cytochrome panel assay with activity outcomes. Panel member name: p450-cyp2c19 Compounds with AC50 equal or less than 10 uM are considered active; type: functional
Cytochrome P450 2D6 = Cytochrome P450 2D6 (Homo sapiens, UniProt P10635);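 also: CYP2D6 member of a cytochrome P450 panel assay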
[1] = molecular target: 5-hydroxytryptamine receptor 5A (Homo sapiens, UniProt P47898); experiment: Counterscreen for agonists of OPRM1-OPRD1 heterodimerization: luminescence-based cell-based high throughput dose response assay to identify agonists of 5-hydroxytryptamine (serotonin) 5A receptor (HTR5A). [Related pubchem assays (depositor defined):AID504326, AID504355, AID504692, AID504904, AID504905]; type: functional
[2] = molecular target: T1, Short transient receptor potential channel 4 (Mus musculus, UniProt Q9QUQ5); experiment: mouse TRPC4 channel activators, dose response, cell-based, HEK293 TRPC4/mu-opioid, Fluo-4 calcium (AID 434937); type: functional
T1 sequence (Q9QUQ5 whole entry): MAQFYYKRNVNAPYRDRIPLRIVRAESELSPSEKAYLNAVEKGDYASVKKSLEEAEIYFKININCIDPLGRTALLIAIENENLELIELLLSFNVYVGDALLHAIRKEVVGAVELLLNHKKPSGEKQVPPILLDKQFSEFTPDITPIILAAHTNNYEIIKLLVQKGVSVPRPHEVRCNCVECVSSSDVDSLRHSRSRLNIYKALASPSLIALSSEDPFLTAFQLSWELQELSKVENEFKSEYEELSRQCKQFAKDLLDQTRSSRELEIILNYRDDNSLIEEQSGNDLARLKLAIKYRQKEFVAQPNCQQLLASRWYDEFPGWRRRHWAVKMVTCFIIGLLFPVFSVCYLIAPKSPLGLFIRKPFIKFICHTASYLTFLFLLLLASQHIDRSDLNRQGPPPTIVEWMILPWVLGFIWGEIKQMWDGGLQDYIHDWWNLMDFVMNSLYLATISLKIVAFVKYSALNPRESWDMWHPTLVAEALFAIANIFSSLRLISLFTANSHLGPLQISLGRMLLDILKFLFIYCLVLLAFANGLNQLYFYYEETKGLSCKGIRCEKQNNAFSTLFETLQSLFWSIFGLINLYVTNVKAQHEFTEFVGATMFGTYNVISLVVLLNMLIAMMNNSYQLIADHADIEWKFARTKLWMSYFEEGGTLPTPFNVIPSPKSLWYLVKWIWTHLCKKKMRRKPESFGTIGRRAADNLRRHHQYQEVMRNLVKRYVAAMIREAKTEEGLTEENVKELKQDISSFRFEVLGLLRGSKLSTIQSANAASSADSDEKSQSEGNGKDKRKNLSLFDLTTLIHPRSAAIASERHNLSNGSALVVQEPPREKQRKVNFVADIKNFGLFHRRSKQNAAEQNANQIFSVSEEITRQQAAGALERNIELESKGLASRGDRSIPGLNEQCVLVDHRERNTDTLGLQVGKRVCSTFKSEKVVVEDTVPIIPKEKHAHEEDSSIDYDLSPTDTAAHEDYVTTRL

[3] = molecular target: Delta-type opioid receptor (Homo sapiens, UniProt P41143); experiment: Counterscreen for agonists of heterodimerization of the mu 1 (OPRM1) and delta 1 (OPRD1) opioid receptors: Luminescence-based cell-based high throughput dose response assay to identify agonists of OPRD1 homodimerization. [Related pubchem assays (depositor defined):AID504326, AID504355, AID504692, AID504904, AID504905]; type: functional
Mu-type opioid receptor = Mu-type opioid receptor (Homo sapiens, UniProt P35372); experiment: Counterscreen for agonists of heterodimerization of the mu 1 (OPRM1) and delta 1 (OPRD1) opioid receptors: Luminescence-based cell-based high throughput dose response assay to identify agonists of OPRM1 homodimerization.; type: functional;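 also: U2OS cells expressing OPRM1 and beta-arrestin as split beta-galactosidase partners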
[4] = molecular target: Nucleotide-binding oligomerization domain-containing protein 2 (Homo sapiens, UniProt Q9HC29); experiment: NOD2 signaling inhibitors, cell-based, luminescence, uHTS, HEK293 (AID 1566); type: functional
HEK293 [5] = experiment: cells; type: functional, cell-based; settings: Homo sapiens
HEK293 [6] = experiment: NOD2 signaling inhibitors in MDP-stimulated cells, cell-based, uHTS, luminescence (AID 2001); type: functional; settings: Homo sapiens
[7] = molecular target: T2, Nucleotide-binding oligomerization domain-containing protein 1 (Homo sapiens, UniProt Q9Y239); experiment: NOD1 signaling inhibitors, SAR follow-up, revised (AID 2333); type: functional
T2 sequence (Q9Y239 whole entry): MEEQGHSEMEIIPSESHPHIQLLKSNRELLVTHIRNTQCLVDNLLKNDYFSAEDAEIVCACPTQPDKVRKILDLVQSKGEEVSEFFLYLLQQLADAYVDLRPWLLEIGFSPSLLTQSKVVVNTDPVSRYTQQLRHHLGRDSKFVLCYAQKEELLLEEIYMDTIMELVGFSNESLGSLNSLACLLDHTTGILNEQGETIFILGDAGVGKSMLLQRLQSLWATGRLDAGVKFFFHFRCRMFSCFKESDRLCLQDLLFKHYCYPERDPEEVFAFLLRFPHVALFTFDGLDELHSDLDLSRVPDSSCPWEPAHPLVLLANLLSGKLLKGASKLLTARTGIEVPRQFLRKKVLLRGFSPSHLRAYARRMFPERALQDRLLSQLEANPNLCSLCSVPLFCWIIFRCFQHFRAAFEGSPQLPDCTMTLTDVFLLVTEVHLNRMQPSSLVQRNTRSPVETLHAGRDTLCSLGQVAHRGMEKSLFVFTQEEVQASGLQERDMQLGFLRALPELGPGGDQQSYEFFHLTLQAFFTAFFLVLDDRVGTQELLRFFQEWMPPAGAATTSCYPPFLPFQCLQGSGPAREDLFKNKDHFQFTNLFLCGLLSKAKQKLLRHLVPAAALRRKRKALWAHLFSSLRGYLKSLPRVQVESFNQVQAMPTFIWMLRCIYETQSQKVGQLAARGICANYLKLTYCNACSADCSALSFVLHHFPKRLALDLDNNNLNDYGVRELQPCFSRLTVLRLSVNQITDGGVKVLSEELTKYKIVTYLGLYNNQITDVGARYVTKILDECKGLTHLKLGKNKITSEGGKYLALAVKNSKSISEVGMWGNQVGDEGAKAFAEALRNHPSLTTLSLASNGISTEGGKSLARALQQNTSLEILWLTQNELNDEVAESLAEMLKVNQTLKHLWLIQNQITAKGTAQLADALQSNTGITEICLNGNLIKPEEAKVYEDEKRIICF

HEK293 [8] = experiment: cells; type: functional, cell-based; settings: Homo sapiens; remark: listed apart in the source
[9] = molecular target: T3, Heat shock factor protein 1 (Mus musculus, UniProt P38532); experiment: inhibition of MG132-induced HSE-luciferase signal, confirmation, cell-based, NIH3T3, luminescence, dose retest (AID 2382); type: functional;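 also: NIH3T3 fibroblasts with HSF1-driven luciferase reporter stressed by proteasome inhibitor MG132; luminescence from HSF1-driven luciferase expression after 8 hours of MG132 stress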
T3 sequence (P38532 whole entry): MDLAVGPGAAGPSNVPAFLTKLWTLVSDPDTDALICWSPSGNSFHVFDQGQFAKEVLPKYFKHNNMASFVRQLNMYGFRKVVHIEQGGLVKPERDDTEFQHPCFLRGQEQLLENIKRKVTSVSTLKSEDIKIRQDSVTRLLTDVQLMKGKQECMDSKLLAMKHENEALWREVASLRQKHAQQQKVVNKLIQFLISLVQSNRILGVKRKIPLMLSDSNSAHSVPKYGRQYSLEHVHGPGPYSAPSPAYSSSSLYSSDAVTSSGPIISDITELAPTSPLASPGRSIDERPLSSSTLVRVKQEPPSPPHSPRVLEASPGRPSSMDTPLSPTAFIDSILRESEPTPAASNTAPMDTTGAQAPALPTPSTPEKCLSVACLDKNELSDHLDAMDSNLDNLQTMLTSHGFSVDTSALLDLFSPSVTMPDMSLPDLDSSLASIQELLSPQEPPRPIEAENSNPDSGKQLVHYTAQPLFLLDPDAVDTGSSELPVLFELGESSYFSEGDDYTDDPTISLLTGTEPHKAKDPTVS

Tumor necrosis factor = Tumor necrosis factor (Homo sapiens, UniProt P01375); experiment: TNFa-triggered NF-kB activation inhibitors, SAR follow-up, cell-based, revised (AID 2337); type: functional
HEK293 [10] = experiment: NOD1 signaling inhibitors, primary screen, cell-based, luminescence, uHTS (AID 1578); type: functional; settings: Homo sapiens
[11] = control 3'UTR Renilla luciferase suppression, dose response, counter-screen for Shn3 inhibitor project, cell-based, Clone20-Shn3RL, cherry-picked (AID 624133); type: functional
[12] = Shn3 3'UTR reporter inhibitors, dose response, cell-based, Clone20 osteoblasts, firefly luciferase, cherry-picked (AID 624132); type: functional;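 also: firefly luciferase luminescence from reporter carrying the Shn3 3'UTR in osteoblasts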
HEK293 [13] = experiment: cells; settings: Homo sapiens
HEK293 [14] = experiment: cells; type: functional, cell-based; settings: Homo sapiens; remark: listed apart in the source
Escherichia coli = experiment: microbe, parasite or virus in culture

Sequence of Mu-type opioid receptor (P35372 whole entry, the tested form may be a part): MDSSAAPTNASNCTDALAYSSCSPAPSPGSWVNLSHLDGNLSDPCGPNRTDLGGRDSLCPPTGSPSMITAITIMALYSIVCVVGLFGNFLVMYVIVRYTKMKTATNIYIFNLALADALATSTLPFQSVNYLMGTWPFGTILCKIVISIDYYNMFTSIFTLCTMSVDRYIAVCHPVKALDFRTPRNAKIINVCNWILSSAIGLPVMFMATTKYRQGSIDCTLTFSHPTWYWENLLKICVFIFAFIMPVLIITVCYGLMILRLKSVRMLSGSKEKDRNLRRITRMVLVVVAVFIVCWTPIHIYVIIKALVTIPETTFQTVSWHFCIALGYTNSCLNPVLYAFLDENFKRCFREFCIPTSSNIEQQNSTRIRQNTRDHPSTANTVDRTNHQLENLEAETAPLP
Sequence of 5-hydroxytryptamine receptor 5A (P47898 whole entry): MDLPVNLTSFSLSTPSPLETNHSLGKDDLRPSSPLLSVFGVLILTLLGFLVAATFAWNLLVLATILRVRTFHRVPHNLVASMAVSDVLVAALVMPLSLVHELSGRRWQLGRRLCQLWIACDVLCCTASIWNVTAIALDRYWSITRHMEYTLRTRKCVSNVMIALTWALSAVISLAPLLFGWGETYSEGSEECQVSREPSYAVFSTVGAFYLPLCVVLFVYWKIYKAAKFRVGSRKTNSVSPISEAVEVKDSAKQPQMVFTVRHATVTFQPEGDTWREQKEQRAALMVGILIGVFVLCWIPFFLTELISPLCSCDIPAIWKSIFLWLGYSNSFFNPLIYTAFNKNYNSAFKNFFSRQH
Sequence of Delta-type opioid receptor (P41143 whole entry): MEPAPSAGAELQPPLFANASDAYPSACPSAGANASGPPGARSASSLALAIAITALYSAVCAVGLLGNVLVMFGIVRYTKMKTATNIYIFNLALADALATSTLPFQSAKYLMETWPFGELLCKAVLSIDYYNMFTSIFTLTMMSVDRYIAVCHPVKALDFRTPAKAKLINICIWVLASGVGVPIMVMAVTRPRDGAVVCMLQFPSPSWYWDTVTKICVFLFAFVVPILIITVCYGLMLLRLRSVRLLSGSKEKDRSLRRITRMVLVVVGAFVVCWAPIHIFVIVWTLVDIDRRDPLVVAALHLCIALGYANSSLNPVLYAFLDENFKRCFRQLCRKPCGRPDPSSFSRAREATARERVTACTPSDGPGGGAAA
Sequence of Cytochrome P450 2C19 (P33261 whole entry): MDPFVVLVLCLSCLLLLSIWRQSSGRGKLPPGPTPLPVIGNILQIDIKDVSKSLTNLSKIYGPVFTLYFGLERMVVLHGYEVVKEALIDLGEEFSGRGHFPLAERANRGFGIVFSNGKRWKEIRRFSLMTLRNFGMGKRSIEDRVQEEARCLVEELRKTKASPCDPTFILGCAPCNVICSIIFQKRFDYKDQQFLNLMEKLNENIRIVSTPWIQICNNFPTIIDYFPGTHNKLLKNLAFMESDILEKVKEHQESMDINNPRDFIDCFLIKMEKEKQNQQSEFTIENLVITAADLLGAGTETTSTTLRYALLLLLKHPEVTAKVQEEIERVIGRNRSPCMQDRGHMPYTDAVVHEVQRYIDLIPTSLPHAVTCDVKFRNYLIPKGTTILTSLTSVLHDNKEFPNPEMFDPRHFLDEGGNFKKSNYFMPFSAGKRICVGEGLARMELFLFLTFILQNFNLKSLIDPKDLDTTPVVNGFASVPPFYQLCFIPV
Sequence of Cytochrome P450 2D6 (P10635 whole entry): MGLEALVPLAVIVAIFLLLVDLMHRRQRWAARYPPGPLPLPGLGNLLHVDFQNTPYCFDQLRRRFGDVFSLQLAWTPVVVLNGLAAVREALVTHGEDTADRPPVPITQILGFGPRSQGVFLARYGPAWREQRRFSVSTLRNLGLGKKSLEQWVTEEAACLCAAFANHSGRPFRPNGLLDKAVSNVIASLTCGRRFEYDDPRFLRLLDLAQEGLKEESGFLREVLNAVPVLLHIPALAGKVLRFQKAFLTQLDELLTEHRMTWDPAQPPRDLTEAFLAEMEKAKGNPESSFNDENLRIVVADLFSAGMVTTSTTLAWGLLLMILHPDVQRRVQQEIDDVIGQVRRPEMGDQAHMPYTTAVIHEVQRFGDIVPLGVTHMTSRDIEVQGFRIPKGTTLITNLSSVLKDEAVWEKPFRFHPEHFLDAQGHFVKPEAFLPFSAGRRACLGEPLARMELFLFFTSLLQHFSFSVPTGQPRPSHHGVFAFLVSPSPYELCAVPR
Sequence of Nucleotide-binding oligomerization domain-containing protein 2 (Q9HC29 whole entry, the tested form may be a part): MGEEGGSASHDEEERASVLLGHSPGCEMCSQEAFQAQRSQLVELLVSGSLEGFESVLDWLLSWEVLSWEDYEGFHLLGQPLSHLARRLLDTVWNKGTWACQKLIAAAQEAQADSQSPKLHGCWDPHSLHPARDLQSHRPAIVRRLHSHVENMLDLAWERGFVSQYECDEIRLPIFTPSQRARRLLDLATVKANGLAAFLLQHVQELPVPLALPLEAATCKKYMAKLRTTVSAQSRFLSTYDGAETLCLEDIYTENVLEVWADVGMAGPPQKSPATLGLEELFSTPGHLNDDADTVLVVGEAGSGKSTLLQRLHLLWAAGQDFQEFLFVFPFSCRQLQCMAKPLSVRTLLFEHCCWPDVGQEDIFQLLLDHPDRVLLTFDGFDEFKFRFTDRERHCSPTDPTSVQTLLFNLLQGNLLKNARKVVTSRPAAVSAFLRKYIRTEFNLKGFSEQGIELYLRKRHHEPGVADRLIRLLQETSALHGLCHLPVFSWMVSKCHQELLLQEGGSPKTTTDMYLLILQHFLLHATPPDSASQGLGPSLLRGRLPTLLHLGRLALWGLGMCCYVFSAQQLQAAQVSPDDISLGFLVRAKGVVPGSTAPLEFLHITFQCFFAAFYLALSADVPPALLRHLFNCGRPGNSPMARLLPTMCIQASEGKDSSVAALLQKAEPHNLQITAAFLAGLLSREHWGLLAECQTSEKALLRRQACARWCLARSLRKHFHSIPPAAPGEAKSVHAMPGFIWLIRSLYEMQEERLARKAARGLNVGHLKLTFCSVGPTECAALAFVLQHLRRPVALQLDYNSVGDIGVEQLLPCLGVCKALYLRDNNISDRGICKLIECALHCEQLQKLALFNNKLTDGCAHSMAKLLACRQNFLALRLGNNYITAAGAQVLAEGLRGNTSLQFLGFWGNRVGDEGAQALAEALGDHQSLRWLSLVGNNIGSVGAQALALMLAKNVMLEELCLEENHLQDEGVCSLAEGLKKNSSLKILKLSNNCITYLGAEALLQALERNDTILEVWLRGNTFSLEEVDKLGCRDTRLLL
Sequence of Tumor necrosis factor (P01375 whole entry): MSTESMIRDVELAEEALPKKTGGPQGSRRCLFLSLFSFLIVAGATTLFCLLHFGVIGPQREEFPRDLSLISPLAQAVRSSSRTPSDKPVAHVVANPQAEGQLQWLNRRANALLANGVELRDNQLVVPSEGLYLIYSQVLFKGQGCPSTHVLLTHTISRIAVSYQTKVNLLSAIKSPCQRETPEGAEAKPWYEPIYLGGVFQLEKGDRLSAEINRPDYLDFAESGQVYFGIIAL

COc1ccc(C(C)=O)c(OC(=O)c2ccco2)c1
AC50 (Cytochrome P450 2C19; read-out: AC50): 7.94 µM (inconclusive)
AC50 (Cytochrome P450 2D6): inconclusive

O=C(O)CCC(=O)Nc1ccc(C(=O)N2CCCCC2)cc1
AC50 (Cytochrome P450 2C19): inconclusive
AC50 (Cytochrome P450 2D6): inconclusive

O=C(c1sc2ccccc2c1Cl)N(Cc1ccco1)C1CCS(=O)(=O)C1 (configuration not stated)
EC50 [1]: > 92.5 µM (inactive)
EC50 [2]: 2.11 µM (active)
EC50 [3]: 29.2 µM (inactive)
EC50 (Mu-type opioid receptor): > 92.5 µM (inactive)

COc1ccc(C(CNc2ncnc3sc(C)c(C)c23)N(C)C)cc1 (configuration not stated)
EC50 [1]: > 92.4 µM (inactive)
EC50 [2]: 0.473 µM (active)
EC50 [3]: 70.5 µM (inactive)
EC50 (Mu-type opioid receptor): > 92.4 µM (inactive)

Cc1cc(C(=O)COC(=O)c2ccccc2Br)c(C)n1CC1CCCO1 (configuration not stated)
EC50 [4]: 0.46 µM (active)
IC50 (HEK293 [5]): > 20 µM (inactive)
IC50 (HEK293 [6]): 0.036 µM (active)
IC50 [7]: 4.8 µM (active)
IC50 (HEK293 [8]): < 0.312 µM (active)
EC50 [9]: < 0.16 µM (active)
IC50 (Tumor necrosis factor): 0.0456 µM (active)
EC50 (HEK293 [10]): > 20 µM (inactive)
AC50 [11]: 21.4 µM (active)
AC50 [12]: > 70 µM (inactive)
IC50 (HEK293 [13]): > 20 µM (inactive)
IC50 (HEK293 [14]): > 20 µM (inactive)

O=C(COC(=O)/C=C/c1ccc(F)cc1)Nc1nnc(-c2ccccc2)o1
AC50 (Escherichia coli): 23.2 µM (active)

Cc1noc(C)c1COC(=O)c1cccc(S(=O)(=O)N2CCOCC2)c1
AC50 (Escherichia coli): 44.7 µM (active)

COC(=O)C1=C(C)N(CCCC(=O)O)C(=O)NC1c1ccccc1OS(=O)(=O)c1ccccc1[N+](=O)[O-] (configuration not stated)
EC50 [1]: > 92.5 µM (inactive)
EC50 [3]: 15.5 µM (inactive)
EC50 (Mu-type opioid receptor): > 92.5 µM (inactive)

COC(=O)C1=C(C)N(CCCC(=O)O)C(=O)NC1c1ccccc1OS(=O)(=O)c1ccc([N+](=O)[O-])cc1 (configuration not stated)
EC50 [1]: > 92.4 µM (inactive)
EC50 [3]: 11.7 µM (inactive)
EC50 (Mu-type opioid receptor): > 92.4 µM (inactive)
